Test results published in patent US11180487B2, “Substituted cyanoindoline derivatives as NIK inhibitors” (Janssen Pharmaceutica NV, priority 2016, dated 2021).

Legend:
[1] = biological target: recombinant human NF-kappaB-inducing kinase (NIK/MAP3K14) (Homo sapiens, UniProt Q99558); assay: Inhibition of auto-phosphorylation of recombinant human NIK/MAP3K14 activity (AlphaScreen), Biological Assay A; format: biochemical; conditions: averaged values over all measurements on all batches
Protocol: Inhibition of Auto-Phosphorylation of Recombinant Human NF-kappaB-Inducing Kinase (NIK/MAP3K14) Activity (AlphaScreen®)
NIK/MAP3K14 auto-phosphorylation activity was measured using the AlphaScreen® (αscreen) format (Perkin Elmer). All compounds tested were dissolved in dimethyl sulfoxide (DMSO) and further dilutions were made in assay buffer. Final DMSO concentration was 1% (v/v) in assays. Assay buffer was 50 mM Tris pH 7.5 containing 1 mM EGTA (ethylene glycol tetraacetic acid), 1 mM DTT (dithiothreitol), 0.1 mM Na3VO4, 5 mM MgCl2, 0.01% Tween® 20. Assays were carried out in 384 well Alphaplates (Perkin Elmer). Incubations consisted of compound, 25 microM Adenosine-5′-triphosphate (ATP), and 0.2 nM NIK/MAP3K14. Incubations were initiated by addition of GST-tagged NIK/MAP3K14 enzyme, carried out for 1 h at 25° C. and terminated by addition of stop buffer containing anti-phospho-IKK Ser176/180 antibody. Protein A Acceptor and Glutathione-Donor beads were added before reading using an EnVision® Multilabel Plate Reader (Perkin Elmer). Signal obtained in the wells containing blank samples was subtracted from all other wells and IC50's were determined by fitting a sigmoidal curve to % inhibition of control versus Log10 compound concentration.

[2] = test system: JJN-3 (NIK translocated) multiple myeloma cells; assay: Antiproliferative activity on JJN-3 multiple myeloma cells (CellTiter-Glo, 96 hr), Biological Assay C; format: cell-based, human; conditions: Homo sapiens, JJN-3, 96 h, JJN-3 (NIK translocated) cells, averaged values, read-out: JJN-3 Proliferation inhibition (IC50 (nM))
Protocol: (§1) Determination of Antiproliferative Activity on JJN-3 (NIK Translocated) and KMS12-BM (NIK WT) Multiple Myeloma Cells
(§2) All compounds tested were dissolved in DMSO and further dilutions were made in culture medium. Final DMSO concentration was 0.3% (v/v) in cell proliferation assays. Viability was assessed using CellTiter-Glo cell viability assay kit (Promega). The human JJN-3 and KMS12-BM cells (DSMZ) were cultured in RPMI 1640 medium supplemented with 2 mM L-glutamine, and 10% fetal calf serum (PAA). Cells were routinely kept as suspension cells at 37° C. in a humidified 5% CO2 atmosphere. Cells were passaged at a seeding density of 0.2×10^6/ml twice a week. Cells were seeded in black tissue culture treated 96-well plates (Perkin Elmer). Densities used for plating ranged from 15000 (JJN3) to 20000 (KMS12BM) cells per well in a total volume of 135 μl medium. Drugs and/or solvents were added (15 μl) to a final volume of 150 μl. Following 96 hr of treatment, plates were removed from the incubator and allowed to equilibrate to room temperature for approx 10 min. 75 μl CellTiter-Glo reagent was added to each well that was then covered (Perkin Elmer Topseal) and shaken on plate shaker for 10 min. Luminescence was measured on a HTS Topcount (Perkin Elmer).
(§3) Within an experiment, the results for each treatment were the mean of 2 replicate wells. For initial screening purposes, compounds were tested using a 9 point dilution curve (serial 1:3 dilutions). For each experiment, controls (containing no drug) and a blank incubation (containing cells read at the time of compound addition) were run in parallel. The blank value was subtracted from all control and sample values. For each sample, the mean value for cell growth (in relative light units) was expressed as a percentage of the mean value for cell growth of the control.

[3] = test system: KMS12-BM (NIK WT) multiple myeloma cells; assay: Antiproliferative activity on KMS12-BM multiple myeloma cells (CellTiter-Glo, 96 hr), Biological Assay C; format: cell-based, human; conditions: Homo sapiens, KMS-12-BM, 96 h, averaged values, read-out: KMS-12 Proliferation inhibition (IC50 (nM))
Protocol: as §1, §2, §3

Sequence of recombinant human NF-kappaB-inducing kinase (NIK/MAP3K14) (Q99558 whole entry): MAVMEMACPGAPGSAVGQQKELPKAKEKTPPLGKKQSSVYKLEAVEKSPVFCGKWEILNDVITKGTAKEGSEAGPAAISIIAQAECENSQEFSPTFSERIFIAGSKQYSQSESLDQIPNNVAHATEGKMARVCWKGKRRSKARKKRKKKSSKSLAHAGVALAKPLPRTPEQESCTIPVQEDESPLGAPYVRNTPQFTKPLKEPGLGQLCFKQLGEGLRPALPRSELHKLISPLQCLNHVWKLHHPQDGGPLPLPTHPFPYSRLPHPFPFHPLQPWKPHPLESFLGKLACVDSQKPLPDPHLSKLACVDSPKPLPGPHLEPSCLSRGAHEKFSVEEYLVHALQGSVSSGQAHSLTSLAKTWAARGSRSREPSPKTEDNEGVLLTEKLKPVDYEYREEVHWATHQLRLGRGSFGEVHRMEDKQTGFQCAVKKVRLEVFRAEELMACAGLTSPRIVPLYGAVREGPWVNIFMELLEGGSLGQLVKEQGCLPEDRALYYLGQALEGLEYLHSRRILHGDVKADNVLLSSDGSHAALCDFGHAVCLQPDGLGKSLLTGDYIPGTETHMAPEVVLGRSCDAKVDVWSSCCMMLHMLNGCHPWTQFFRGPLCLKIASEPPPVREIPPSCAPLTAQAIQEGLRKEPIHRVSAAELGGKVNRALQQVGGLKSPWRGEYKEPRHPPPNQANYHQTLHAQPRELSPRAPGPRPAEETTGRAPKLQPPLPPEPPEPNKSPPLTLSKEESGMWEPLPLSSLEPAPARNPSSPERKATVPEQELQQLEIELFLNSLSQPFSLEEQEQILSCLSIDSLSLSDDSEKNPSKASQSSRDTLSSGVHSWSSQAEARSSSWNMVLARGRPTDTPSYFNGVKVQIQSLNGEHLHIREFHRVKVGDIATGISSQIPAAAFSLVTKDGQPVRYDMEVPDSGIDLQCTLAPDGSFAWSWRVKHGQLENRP

SMILES	IC50 [1] [nM]	IC50 [2] [nM]	melting point [°C]	IC50 [3] [nM]
COc1ccc(C#N)cc1Nc1nccc(-c2cc(C#N)c3c(c2)C(C)(CO)CN3)n1 (stereo not shown) [Compound 31]	5.3	2340	295	> 10000
CC1(CO)CNc2c(C#N)cc(-c3ccnc(Nc4cc(C#N)ccc4Cl)n3)cc21 (stereo not shown) [Compound 32]	4	170	274	> 10000
COc1ccc(Cl)cc1Nc1nccc(-c2cc(C#N)c3c(c2)C(C)(CO)CN3)n1 (stereo not shown) [Compound 33]	11.2	85	239	> 10000
COCCOc1ccc(Cl)cc1Nc1nccc(-c2cc(C#N)c3c(c2)C(C)(CO)CN3)n1 (stereo not shown) [Compound 34]	20.9	316	184	> 10000
CC1(CO)CNc2c(C#N)cc(-c3ccnc(Nc4cc(Cl)ccc4OC4CCN(C5CC5)CC4)n3)cc21 (stereo not shown) [Compound 35]	37.2	129	192	7080
CC1(CO)CNc2c(C#N)cc(-c3ccnc(Nc4ccc(C5CCOCC5)c(C(F)(F)F)c4)n3)cc21 (stereo not shown) [Compound 36]	75.9	51	263	6460
CC1(CO)CNc2c(C#N)cc(-c3ccnc(Nc4ccc(OC5CCOCC5)c(C(F)(F)F)c4)n3)cc21 (stereo not shown) [Compound 37]	37.2	17	221	4170
CC1(CO)CNc2c(C#N)cc(-c3ccnc(Nc4cc(C(F)(F)F)ccc4OCCO)n3)cc21 (stereo not shown) [Compound 38]	30.9	182	190	> 10000
CC1(CO)CNc2c(C#N)cc(-c3ccnc(Nc4cc(Cl)ccc4OCCO)n3)cc21 (stereo not shown) [Compound 40]	8.7	155	236	> 10000
CCN1CCC(c2ccc(Nc3nccc(-c4cc(C#N)c5c(c4)C(C)(CO)CN5)n3)cc2Cl)CC1 (stereo not shown) [Compound 41]	1.7	13	> 260	110
CC(C)c1ccc(COc2cccc(Nc3nccc(-c4cc(C#N)c5c(c4)C(C)(CO)CN5)n3)c2)cc1 (stereo not shown) [Compound 42]	309	4270	183	> 10000
CN1CCC(Oc2ccc(Nc3nccc(-c4cc(C#N)c5c(c4)C(C)(CO)CN5)n3)cc2C(F)(F)F)CC1 (stereo not shown) [Compound 43]	2.5	9	237	251
CNCCOc1ccc(Cl)cc1Nc1nccc(-c2cc(C#N)c3c(c2)C(C)(CO)CN3)n1 (stereo not shown) [Compound 44]	8.3	219	168	> 10000
COc1ccc(Cl)cc1Nc1ncc(F)c(-c2cc(C#N)c3c(c2)C(C)(CO)CN3)n1 (stereo not shown) [Compound 47]	15.1	776	> 250	> 10000
COc1ccc(Cl)cc1Nc1ncc(F)c(-c2cc(C#N)c3c(c2)[C@@](C)(CO)CN3)n1 [Compound 48]	8.9	447	> 250	> 10000
CC1(CO)CNc2c(C#N)cc(-c3ccnc(Nc4cc(Cl)ccc4C(F)(F)F)n3)cc21 (stereo not shown) [Compound 49]	24.6	1620	172	> 10000
CC1CN(Cc2ccc(Nc3nccc(-c4cc(C#N)c5c(c4)C(C)(CO)CN5)n3)cc2C(F)(F)F)CC(C)N1C (stereo not shown) [Compound 50]	3	9	190	102
Cc1cc(Br)c(Cl)cc1Nc1nccc(-c2cc(C#N)c3c(c2)C(C)(CO)CN3)n1 (stereo not shown) [Compound 51]	49	363	200	> 10000
CC1(CO)CNc2c(C#N)cc(-c3ccnc(Nc4cc(Cl)ccc4OC(F)(F)F)n3)cc21 (stereo not shown) [Compound 52]	41.7	676	217	> 10000
Cc1c(Nc2nccc(-c3cc(C#N)c4c(c3)C(C)(CO)CN4)n2)cc(Cl)cc1C(=O)N(C)C (stereo not shown) [Compound 53]	3.6	33	245	1260
CN(C)C(=O)Cc1ccc(Cl)cc1Nc1nccc(-c2cc(C#N)c3c(c2)C(C)(CO)CN3)n1 (stereo not shown) [Compound 54]	9.8	275	154	> 10000
CC(C)N1CCN(C(=O)Cc2ccc(Cl)cc2Nc2nccc(-c3cc(C#N)c4c(c3)C(C)(CO)CN4)n2)CC1 (stereo not shown) [Compound 55]	15.5	282	135	> 10000
CN(C)C(=O)c1ccc(Cl)cc1Nc1nccc(-c2cc(C#N)c3c(c2)C(C)(CO)CN3)n1 (stereo not shown) [Compound 56]	126	1740	170	> 10000
COCCOc1ccc(Cl)cc1Nc1nccc(-c2cc(C#N)c3c(c2)[C@](C)(CO)CN3)n1 [Compound 57]	50.1	> 10000	188	> 10000
Cc1c(Nc2nccc(-c3cc(C#N)c4c(c3)C(C)(CO)CN4)n2)cc(Cl)cc1C(=O)N1CCN(C)CC1 (stereo not shown) [Compound 58]	2.6	85	183	6760
CC(=O)Nc1cc(Cl)cc(Nc2nccc(-c3cc(C#N)c4c(c3)[C@@](C)(CO)CN4)n2)c1C [Compound 63]	1.7	7	262	~5010
COCCOc1cc(P(C)(C)=O)ccc1Nc1nccc(-c2cc(C#N)c3c(c2)[C@@](C)(CO)CN3)n1 [Compound 67]	4.3	~1700	188	> 10000
COCCOc1cc(F)ccc1Nc1nccc(-c2cc(C#N)c3c(c2)[C@@](C)(CO)CN3)n1 [Compound 69]	4.9	1020	157	> 10000
